Results: US12180193B2, “Accelerating fibrosarcoma protein degrading compounds and associated methods of use” (Arvinas Operations, Inc., priority 2020, dated 2024)

Experiments:
BRAF V600E = biological target: T1, BRAF V600E (Homo sapiens, UniProt P15056, V600E); assay: Cellular assay of target protein degradation, T-Rex 293 cells stably transfected with HA-BRAF_V600E (HA immunofluorescence, high content imaging); type: cell-based; settings: T-Rex 293 HA-BRAF V600E; for DC50: half maximal degradation, read-out: BRaf V600E DC50; for Dmax: maximum degradation observed
T1 construct: expressed in transfected cells
In short: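 Degradation of the HA-tagged construct is measured after 24 h treatment at 37 °C across 1 μM to 0.1 nM in 0.1% DMSO, in doxycycline-induced (1 ng/mL) cells. DC50 and Dmax come from HA fluorescence imaging.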

BRAF G466V = biological target: T2, BRAF G466V (Homo sapiens, UniProt P15056, G466V); assay: Cellular assay of target protein degradation, T-Rex 293 cells stably transfected with HA-BRAF G466V (HA immunofluorescence, high content imaging); type: cell-based; settings: T-Rex 293 HA-BRAF G466V; for DC50: half maximal degradation, read-out: BRaf G466V DC50; for Dmax: maximum degradation observed
T2 construct: expressed in transfected cells
In short: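 Dose range spans 30 nM to 3 pM (0.1% DMSO) over 24 hours at 37° C, in cells induced with 0.75 ng/mL doxycycline. Fixed cells are probed with anti-HA antibody overnight at 4° C, then imaged; half-maximal degradation and maximum degradation are derived.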

T2 sequence (P15056 whole entry G466V): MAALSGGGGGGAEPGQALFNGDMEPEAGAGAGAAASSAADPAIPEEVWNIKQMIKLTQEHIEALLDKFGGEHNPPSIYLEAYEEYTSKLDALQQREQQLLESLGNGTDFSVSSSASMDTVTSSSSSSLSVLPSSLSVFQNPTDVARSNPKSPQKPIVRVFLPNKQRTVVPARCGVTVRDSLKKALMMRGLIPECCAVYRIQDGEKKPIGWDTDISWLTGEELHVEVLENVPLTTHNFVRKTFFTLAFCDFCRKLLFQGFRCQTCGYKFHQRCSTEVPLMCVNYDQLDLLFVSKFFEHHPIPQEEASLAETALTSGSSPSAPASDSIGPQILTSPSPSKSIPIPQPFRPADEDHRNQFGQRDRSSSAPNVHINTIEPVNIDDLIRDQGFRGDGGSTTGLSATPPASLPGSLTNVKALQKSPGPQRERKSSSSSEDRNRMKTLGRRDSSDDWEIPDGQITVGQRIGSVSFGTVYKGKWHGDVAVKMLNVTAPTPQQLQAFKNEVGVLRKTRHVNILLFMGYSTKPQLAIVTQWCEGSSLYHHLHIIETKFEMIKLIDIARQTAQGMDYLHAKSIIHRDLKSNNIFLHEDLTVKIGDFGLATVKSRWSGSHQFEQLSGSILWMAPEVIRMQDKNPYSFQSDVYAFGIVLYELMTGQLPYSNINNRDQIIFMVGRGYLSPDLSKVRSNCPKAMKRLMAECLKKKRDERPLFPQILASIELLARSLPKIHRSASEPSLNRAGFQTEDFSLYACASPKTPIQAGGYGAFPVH
T1 sequence (P15056 whole entry V600E): as the sequence (P15056 whole entry G466V) above, with V466G, V600E counted along it

| SMILES | DC50 (BRAF V600E) [nM] | Dmax (BRAF V600E) [%] | DC50 (BRAF G466V) [nM] | Dmax (BRAF G466V) [%] |
| --- | --- | --- | --- | --- |
| O=C1CCC(N2Cc3cc(N4CCN(CCCCCc5ccc(-c6cnc7[nH]cc(C(=O)c8c(F)ccc(NS(=O)(=O)N9CC[C@@H](F)C9)c8F)c7c6)cc5)CC4)ccc3C2=O)C(=O)N1 (stereo partly drawn) [Compound 318, (3R)-N-(3-{5-[4-(5-{4-[2-(2,6-dioxopiperidin-3-yl)-1-oxo-2,3-dihydro-1H-isoindol-5-yl]piperazin-1-yl}penyl)phenyl]-1H-pyrrolo[2,3-b]pyridine-3-carbonyl}-2,4-difluorophenyl)-3-fluoropyrrolidine-1-sulfonamide] | 50 to 500 | 35 to 70 | 10 to 30 | 35 to 70 |
| O=C1CCC(N2Cc3cc(C4CCN(CC5CC6(C5)CN(c5ccc(-c7cnc8[nH]cc(C(=O)c9c(F)ccc(NS(=O)(=O)N%10CC[C@@H](F)C%10)c9F)c8c7)cn5)C6)CC4)ccc3C2=O)C(=O)N1 (stereo partly drawn) [Compound 103, (3R)-N-[3-(5-{6-[6-({4-[2-(2,6-dioxopiperidin-3-yl)-1-oxo-2,3-dihydro-1H-isoindol-5-yl]piperidin-1-yl}methyl)-2-azaspiro [3.3]heptan-2-yl]pyridin-3-yl}-1H-pyrrolo[2,3-b]pyridine-3-carbonyl)-2,4-difluorophenyl]-3-fluoropyrrolidine-1-sulfonamide] | 5 to 50 | 35 to 70 | 1 to 10 | > 70 |
| CCCS(=O)(=O)Nc1ccc(F)c(C(=O)c2c[nH]c3ncc(-c4ccc(N5CCC(CN6CCC(c7ccc8c(c7)CN([C@H]7CCC(=O)NC7=O)C8=O)CC6)CC5)cc4)cc23)c1F [Compound 234, N-{3-[5-(4-{4-[(4-{2-[(3S)-2,6-dioxopiperidin-3-yl]-1-oxo-2,3-dihydro-1H-isoindol-5-yl}piperidin-1-yl)methyl]piperidin-1-yl}phenyl)-1H-pyrrolo[2,3-b]pyridine-3-carbonyl]-2,4-difluorophenyl}propane-1-sulfonamide] | 5 to 50 | 35 to 70 | < 1 | > 70 |
| O=C1CCC(N2Cc3cc(N4CC5(CN(CCOc6ccc(-c7cnc8[nH]cc(C(=O)c9c(F)ccc(NS(=O)(=O)N%10CC[C@@H](F)C%10)c9F)c8c7)cc6F)C5)C4)ccc3C2=O)C(=O)N1 (stereo partly drawn) [Compound 114, (3R)-N-(3-{5-[4-(2-{6-[2-(2,6-dioxopiperidin-3-yl)-1-oxo-2,3-dihydro-1H-isoindol-5-yl]-2,6-diazaspiro[3.3]heptan-2-yl}ethoxy)-3-fluorophenyl]-1H-pyrrolo[2,3-b]pyridine-3-carbonyl}-2,4-difluorophenyl)-3-fluoropyrrolidine-1-sulfonamide] | 5 to 50 | 35 to 70 | 1 to 10 | > 70 |
| O=C1CCC(NC(=O)c2ccc(N3CCN(CCN4CCN(c5ccc(-c6cnc7[nH]cc(C(=O)c8c(F)ccc(NS(=O)(=O)N9CC[C@@H](F)C9)c8F)c7c6)cc5)CC4)CC3)cc2F)C(=O)N1 (stereo partly drawn) [Compound 378, 4-(4-{2-[4-(4-{3-[2,6-difluoro-3-({[(3R)-3-fluoropyrrolidin-1-yl]sulfonyl}amino)benzoyl]-1H-pyrrolo[2,3-b]pyridin-5-yl}phenyl)piperazin-1-yl]ethyl}piperazin-1-yl)-N-(2,6-dioxopiperidin-3-yl)-2-fluorobenzamide] | 5 to 50 | < 35 | < 1 | < 35 |
| O=C1CCC(N2Cc3cc(N4CCC(CN5CC(C6CN(c7ccc(-c8cnc9[nH]cc(C(=O)c%10c(F)ccc(NS(=O)(=O)N%11CC[C@@H](F)C%11)c%10F)c9c8)cc7)C6)C5)CC4)ccc3C2=O)C(=O)N1 (stereo partly drawn) [Compound 330, (3R)-N-[3-(5-{4-[1′-({1-[2-(2,6-dioxopiperidin-3-yl)-1-oxo-2,3-dihydro-1H-isoindol-5-yl]piperidin-4-yl}methyl)-[3,3′-biazetidin]-1-yl]phenyl}-1H-pyrrolo[2,3-b]pyridine-3-carbonyl)-2,4-difluorophenyl]-3-fluoropyrrolidine-1-sulfonamide] | 5 to 50 | 35 to 70 | 1 to 10 | > 70 |
| CN(C1CC1)S(=O)(=O)Nc1ccc(F)c(C(=O)c2c[nH]c3ncc(-c4ccc(N5CCC(CN6CCC(c7ccc8c(c7)CN([C@H]7CCC(=O)NC7=O)C8=O)CC6)CC5)cc4)cc23)c1F [Compound 281, (3S)-3-(5-{1-[(1-{4-[3-(3-{[cyclopropyl(methyl)sulfamoyl]amino}-2,6-difluorobenzoyl)-1H-pyrrolo[2,3-b]pyridin-5-yl]phenyl}piperidin-4-yl)methyl]piperidin-4-yl}-1-oxo-2,3-dihydro-1H-isoindol-2-yl) piperidine-2,6-dione] | 5 to 50 | 35 to 70 | 1 to 10 | 35 to 70 |

Further lines, results first:

| DC50 (BRAF V600E) [nM] | Dmax (BRAF V600E) [%] | DC50 (BRAF G466V) [nM] | Dmax (BRAF G466V) [%] | SMILES |
| --- | --- | --- | --- | --- |
| 5 to 50 | 35 to 70 | < 1 | 35 to 70 | O=C1CCN(c2ccc(C3CCN(CC4CCN(c5ccc(-c6cnc7[nH]cc(C(=O)c8c(F)ccc(NS(=O)(=O)N9CC[C@@H](F)C9)c8F)c7c6)cc5)CC4)CC3)cc2F)C(=O)N1 [Compound 140, (3R)-N-[3-(5-{4-[4-({4-[4-(2,4-dioxo-1,3-diazinan-1-yl)-3-fluorophenyl]piperidin-1-yl}methyl)piperidin-1-yl]phenyl}-1H-pyrrolo[2,3-b]pyridine-3-carbonyl)-2,4-difluorophenyl]-3-fluoropyrrolidine-1-sulfonamide] |
| 5 to 50 | > 70 | 1 to 10 | 35 to 70 | O=C1CC[C@H](NC(=O)c2ccc(C3CCN(CC4CCN(c5ccc(-c6cnc7[nH]cc(C(=O)c8c(F)ccc(NS(=O)(=O)N9CC[C@@H](F)C9)c8F)c7c6)cc5)CC4)CC3)cc2F)C(=O)N1 [Compound 33, 4-(1-{[1-(4-{3-[2,6-difluoro-3-({[(3R)-3-fluoropyrrolidin-1-yl]sulfonyl}amino)benzoyl]-1H-pyrrolo[2,3-b]pyridin-5-yl}phenyl)piperidin-4-yl]methyl}piperidin-4-yl)-N-[(3S)-2,6-dioxopiperidin-3-yl]-2-fluorobenzamide] |
| 5 to 50 | 35 to 70 | 1 to 10 | 35 to 70 | C[C@H]1CCCN1S(=O)(=O)Nc1ccc(F)c(C(=O)c2c[nH]c3ncc(-c4ccc(N5CCC(CN6CCC(c7ccc8c(c7)CN(C7CCC(=O)NC7=O)C8=O)CC6)CC5)cc4)cc23)c1F (stereo partly drawn) [Compound 264, (2S)-N-[3-(5-{4-[4-({4-[2-(2,6-dioxopiperidin-3-yl)-1-oxo-2,3-dihydro-1H-isoindol-5-yl]piperidin-1-yl}methyl)piperidin-1-yl]phenyl}-1H-pyrrolo[2,3-b]pyridine-3-carbonyl)-2,4-difluorophenyl]-2-methylpyrrolidine-1-sulfonamide] |
| 5 to 50 | 35 to 70 | 1 to 10 | > 70 | COc1cc(N2CCC(CN3CCN(c4ccc(-c5cnc6[nH]cc(C(=O)c7c(F)ccc(NS(=O)(=O)N8CC[C@@H](F)C8)c7F)c6c5)cc4)CC3)CC2)ccc1C(=O)NC1CCC(=O)NC1=O (stereo partly drawn) [Compound 358, 4-(4-{[4-(4-{3-[2,6-difluoro-3-({[(3R)-3-fluoropyrrolidin-1-yl]sulfonyl}amino)benzoyl]-1H-pyrrolo[2,3-b]pyridin-5-yl}phenyl)piperazin-1-yl]methyl}piperidin-1-yl)-N-(2,6-dioxopiperidin-3-yl)-2-methoxybenzamide] |
| 5 to 50 | 35 to 70 | 1 to 10 | > 70 | O=C1CC[C@H](NC(=O)c2ccc(N3CC4(CN(CC5CCN(c6ccc(-c7cnc8[nH]cc(C(=O)c9c(F)ccc(NS(=O)(=O)N%10CC[C@@H](F)C%10)c9F)c8c7)cc6)CC5)C4)C3)cn2)C(=O)N1 [Compound 345, 5-(6-{[1-(4-{3-[2,6-difluoro-3-({[(3R)-3-fluoropyrrolidin-1-yl]sulfonyl}amino)benzoyl]-1H-pyrrolo[2,3-b]pyridin-5-yl}phenyl)piperidin-4-yl]methyl}-2,6-diazaspiro[3.3]heptan-2-yl)-N-[(3S)-2,6-dioxopiperidin-3-yl]pyridine-2-carboxamide] |
| 5 to 50 | < 35 | 1 to 10 | > 70 | O=C1CCC(N2Cc3cc(N4CCC(CN5CCC(C6(c7ccc(-c8cnc9[nH]cc(C(=O)c%10c(F)ccc(NS(=O)(=O)N%11CC[C@@H](F)C%11)c%10F)c9c8)cc7)CC6)CC5)CC4)ccc3C2=O)C(=O)N1 (stereo partly drawn) [Compound 174, (3R)-N-{3-[5-(4-{1-[1-({1-[2-(2,6-dioxopiperidin-3-yl)-1-oxo-2,3-dihydro-1H-isoindol-5-yl]piperidin-4-yl}methyl)piperidin-4-yl]cyclopropyl}phenyl)-1H-pyrrolo[2,3-b]pyridine-3-carbonyl]-2,4-difluorophenyl}-3-fluoropyrrolidine-1-sulfonamide] |
| 5 to 50 | 35 to 70 | 1 to 10 | > 70 | O=C1CCC(N2Cc3cc(N4CC(CN5CCC(c6ccc(-c7cnc8[nH]cc(C(=O)c9c(F)ccc(NS(=O)(=O)N%10CC[C@@H](F)C%10)c9F)c8c7)cc6)CC5)C4)ccc3C2=O)C(=O)N1 (stereo partly drawn) [Compound 7, (3R)-N-[3-(5-{4-[1-({1-[2-(2,6-dioxopiperidin-3-yl)-1-oxo-2,3-dihydro-1H-isoindol-5-yl]azetidin-3-yl}methyl)piperidin-4-yl]phenyl}-1H-pyrrolo[2,3-b]pyridine-3-carbonyl)-2,4-difluorophenyl]-3-fluoropyrrolidine-1-sulfonamide] |
